Reference: a compilation of properties of binary mixtures (doi:10.1021/acs.iecr.1c02970)

Assay: xn = mol fraction of the nth substance listed
Conditions: 100 kPa

CC[n+]1ccn(C)c1.CS(=O)(=O)[O-] + O
Conditions	electrical conductivity [S/m]	speed of sound [m/s]	viscosity [mPa·s]
293.15 K, x1 = 0.002	0.693	–	–
293.15 K, x1 = 0.0177	–	–	1.439
293.15 K, x1 = 0.0181	–	1596.2	–
293.15 K, x1 = 0.028	4.07	–	–
293.15 K, x1 = 0.0357	–	–	1.98
293.15 K, x1 = 0.0375	–	1686.1	–
293.15 K, x1 = 0.0489	4.55	–	–
293.15 K, x1 = 0.07	4.39	–	–
293.15 K, x1 = 0.0749	–	1801.7	–
293.15 K, x1 = 0.0945	–	1837.1	–
293.15 K, x1 = 0.1089	–	–	5.395
293.15 K, x1 = 0.1122	3.62	–	–
293.15 K, x1 = 0.113	–	1857.6	–
293.15 K, x1 = 0.1833	–	1882.3	–
293.15 K, x1 = 0.1848	–	–	10.55
293.15 K, x1 = 0.2034	2.29	–	–
293.15 K, x1 = 0.2741	–	1871.1	–
293.15 K, x1 = 0.3671	–	1850.8	–
293.15 K, x1 = 0.3752	1.19	–	–
293.15 K, x1 = 0.4263	–	–	34.52
293.15 K, x1 = 0.6064	–	1809.5	–
293.15 K, x1 = 0.6951	–	1800.2	–
293.15 K, x1 = 0.7708	–	1793	–
293.15 K, x1 = 0.9157	–	1780.8	–
293.15 K, x1 = 0.9339	0.201	–	–
293.15 K, x1 = 0.9357	–	–	214.4
293.15 K, x2 = 0.0082	–	1779.6	–
298.15 K, x1 = 0.0375	–	1686.1	–
298.15 K, x1 = 0.056	–	1749	–
298.15 K, x1 = 0.0749	–	1794.6	–
298.15 K, x1 = 0.0945	–	1828.1	–
298.15 K, x1 = 0.113	–	1847.4	–
298.15 K, x1 = 0.2741	–	1859.1	–
298.15 K, x1 = 0.3671	–	1839	–
298.15 K, x1 = 0.489	–	1815.1	–
298.15 K, x1 = 0.6064	–	1797	–
298.15 K, x1 = 0.6951	–	1787.9	–
298.15 K, x1 = 0.9157	–	1767.6	–
298.15 K, x2 = 0.0082	–	1766.9	–
303.15 K, x1 = 0.002	0.852	–	–
303.15 K, x1 = 0.0165	4.03	–	–
303.15 K, x1 = 0.0181	–	1607.4	–
303.15 K, x1 = 0.028	5.09	–	–
303.15 K, x1 = 0.0357	–	–	1.541
303.15 K, x1 = 0.0375	–	1685.5	–
303.15 K, x1 = 0.0489	5.75	–	–
303.15 K, x1 = 0.0674	–	–	2.309
303.15 K, x1 = 0.07	5.61	–	–
303.15 K, x1 = 0.0749	–	1787.3	–
303.15 K, x1 = 0.0945	–	1818.7	–
303.15 K, x1 = 0.1089	–	–	3.994
303.15 K, x1 = 0.113	–	1837.3	–
303.15 K, x1 = 0.1833	–	1859.5	–
303.15 K, x1 = 0.1848	–	–	7.58
303.15 K, x1 = 0.2034	3.13	–	–
303.15 K, x1 = 0.2741	–	1847.2	–
303.15 K, x1 = 0.3671	–	1827.1	–
303.15 K, x1 = 0.3752	1.67	–	–
303.15 K, x1 = 0.4263	–	–	23.25
303.15 K, x1 = 0.489	–	1802.7	–
303.15 K, x1 = 0.6951	–	1775.8	–
303.15 K, x1 = 0.7708	–	1767.9	–
303.15 K, x1 = 0.9157	–	1755.3	–
303.15 K, x1 = 0.9339	0.351	–	–
303.15 K, x2 = 0.0082	–	1754.4	–
308.15 K, x1 = 0.0181	–	1611.3	–
308.15 K, x1 = 0.0375	–	1684.1	–
308.15 K, x1 = 0.056	–	1739.2	–
308.15 K, x1 = 0.0749	–	1779.7	–
308.15 K, x1 = 0.113	–	1827	–
308.15 K, x1 = 0.1833	–	1848.4	–
308.15 K, x1 = 0.2741	–	1835.3	–
308.15 K, x1 = 0.3671	–	1815.2	–
308.15 K, x1 = 0.489	–	1790.4	–
308.15 K, x1 = 0.6951	–	1763.8	–
308.15 K, x1 = 0.7708	–	1755.8	–
308.15 K, x1 = 0.9157	–	1743.1	–
308.15 K, x2 = 0.0082	–	1742.1	–
313.15 K, x1 = 0.002	1.02	–	–
313.15 K, x1 = 0.0165	4.87	–	–
313.15 K, x1 = 0.0177	–	–	0.917
313.15 K, x1 = 0.0181	–	1614.1	–
313.15 K, x1 = 0.028	6.18	–	–
313.15 K, x1 = 0.0375	–	1682.2	–
313.15 K, x1 = 0.0489	7.04	–	–
313.15 K, x1 = 0.056	–	1733.8	–
313.15 K, x1 = 0.0674	–	–	1.819
313.15 K, x1 = 0.07	6.95	–	–
313.15 K, x1 = 0.0749	–	1771.7	–
313.15 K, x1 = 0.0945	–	1799.6	–
313.15 K, x1 = 0.1122	6	–	–
313.15 K, x1 = 0.113	–	1816.6	–
313.15 K, x1 = 0.1833	–	1836.9	–
313.15 K, x1 = 0.1848	–	–	5.649
313.15 K, x1 = 0.2034	4.08	–	–
313.15 K, x1 = 0.2741	–	1823.4	–
313.15 K, x1 = 0.3671	–	1803.3	–
313.15 K, x1 = 0.4263	–	–	16.5
313.15 K, x1 = 0.489	–	1778.5	–
313.15 K, x1 = 0.6064	–	1760.4	–
313.15 K, x1 = 0.6951	–	1751.7	–
313.15 K, x1 = 0.7708	–	1743.9	–
313.15 K, x1 = 0.9339	0.558	–	–
313.15 K, x1 = 0.9357	–	–	68.4
313.15 K, x2 = 0.0082	–	1730	–
318.15 K, x1 = 0.0181	–	1615.9	–
318.15 K, x1 = 0.056	–	1727.8	–
318.15 K, x1 = 0.0749	–	1763.5	–
318.15 K, x1 = 0.113	–	1806.2	–
318.15 K, x1 = 0.2741	–	1811.2	–
318.15 K, x1 = 0.3671	–	1791.3	–
318.15 K, x1 = 0.489	–	1766.7	–
318.15 K, x1 = 0.6064	–	1748.6	–
318.15 K, x1 = 0.7708	–	1731.9	–
318.15 K, x1 = 0.9157	–	1719.1	–
318.15 K, x2 = 0.0082	–	1717.9	–
323.15 K, x1 = 0.002	1.2	–	–
323.15 K, x1 = 0.0165	5.73	–	–
323.15 K, x1 = 0.0181	–	1616.5	–
323.15 K, x1 = 0.028	7.33	–	–
323.15 K, x1 = 0.056	–	1721.3	–
323.15 K, x1 = 0.0674	–	–	1.468
323.15 K, x1 = 0.07	8.43	–	–
323.15 K, x1 = 0.0749	–	1754.8	–
323.15 K, x1 = 0.0945	–	1779.5	–
323.15 K, x1 = 0.1089	–	–	2.428
323.15 K, x1 = 0.1122	7.28	–	–
323.15 K, x1 = 0.1848	–	–	4.37
323.15 K, x1 = 0.2741	–	1799	–
323.15 K, x1 = 0.489	–	1754.8	–
323.15 K, x1 = 0.6951	–	1727.9	–
323.15 K, x1 = 0.7708	–	1720	–
323.15 K, x1 = 0.9157	–	1707.2	–
323.15 K, x1 = 0.9357	–	–	44.06
323.15 K, x2 = 0.0082	–	1705.9	–
328.15 K, x1 = 0.0181	–	1616.2	–
328.15 K, x1 = 0.0375	–	1672.1	–
328.15 K, x1 = 0.056	–	1714.4	–
328.15 K, x1 = 0.0749	–	1745.8	–
328.15 K, x1 = 0.0945	–	1769	–
328.15 K, x1 = 0.113	–	1783.9	–
328.15 K, x1 = 0.1833	–	1800.7	–
328.15 K, x1 = 0.2741	–	1786.7	–
328.15 K, x1 = 0.489	–	1743	–
328.15 K, x1 = 0.6064	–	1725	–
328.15 K, x1 = 0.6951	–	1716.1	–
328.15 K, x1 = 0.7708	–	1707.9	–
328.15 K, x1 = 0.9157	–	1695.4	–
333.15 K, x1 = 0.002	1.38	–	–
333.15 K, x1 = 0.0165	6.66	–	–
333.15 K, x1 = 0.0177	–	–	0.642
333.15 K, x1 = 0.0181	–	1615.2	–
333.15 K, x1 = 0.028	8.53	–	–
333.15 K, x1 = 0.0357	–	–	0.848
333.15 K, x1 = 0.0375	–	1667.4	–
333.15 K, x1 = 0.0489	9.85	–	–
333.15 K, x1 = 0.0674	–	–	1.214
333.15 K, x1 = 0.07	9.96	–	–
333.15 K, x1 = 0.0749	–	1736.4	–
333.15 K, x1 = 0.0945	–	1758.3	–
333.15 K, x1 = 0.1089	–	–	1.965
333.15 K, x1 = 0.1122	8.86	–	–
333.15 K, x1 = 0.113	–	1772.4	–
333.15 K, x1 = 0.1848	–	–	3.473
333.15 K, x1 = 0.2034	6.33	–	–
333.15 K, x1 = 0.2741	–	1774.2	–
333.15 K, x1 = 0.3752	3.67	–	–
333.15 K, x1 = 0.4263	–	–	9.38
333.15 K, x1 = 0.6064	–	1713.3	–
333.15 K, x1 = 0.6951	–	1704.2	–
333.15 K, x1 = 0.7708	–	1696.1	–
333.15 K, x1 = 0.9157	–	1683.7	–
333.15 K, x1 = 0.9339	1.16	–	–
333.15 K, x1 = 0.9357	–	–	29.98
333.15 K, x2 = 0.0082	–	1682.3	–
343.15 K, x1 = 0.002	1.59	–	–
343.15 K, x1 = 0.0177	–	–	0.551
343.15 K, x1 = 0.0181	–	1610.8	–
343.15 K, x1 = 0.028	9.78	–	–
343.15 K, x1 = 0.0357	–	–	0.735
343.15 K, x1 = 0.0375	–	1656.3	–
343.15 K, x1 = 0.056	–	1690.9	–
343.15 K, x1 = 0.0674	–	–	1.026
343.15 K, x1 = 0.07	11.6	–	–
343.15 K, x1 = 0.0749	–	1716.8	–
343.15 K, x1 = 0.0945	–	1736.2	–
343.15 K, x1 = 0.1089	–	–	1.629
343.15 K, x1 = 0.1122	10.4	–	–
343.15 K, x1 = 0.113	–	1748.7	–
343.15 K, x1 = 0.1833	–	1762.7	–
343.15 K, x1 = 0.1848	–	–	2.831
343.15 K, x1 = 0.2034	7.58	–	–
343.15 K, x1 = 0.2741	–	1749.3	–
343.15 K, x1 = 0.3671	–	1730.3	–
343.15 K, x1 = 0.3752	4.5	–	–
343.15 K, x1 = 0.489	–	1707.6	–
343.15 K, x1 = 0.6951	–	1680.7	–
343.15 K, x1 = 0.9157	–	1660.7	–
343.15 K, x1 = 0.9339	1.55	–	–
343.15 K, x1 = 0.9357	–	–	21.61
343.15 K, x2 = 0.0082	–	1659	–
353.15 K, x1 = 0.002	1.81	–	–
353.15 K, x1 = 0.0177	–	–	0.475
353.15 K, x1 = 0.028	11.1	–	–
353.15 K, x1 = 0.0357	–	–	0.625
353.15 K, x1 = 0.07	13.2	–	–
353.15 K, x1 = 0.1089	–	–	1.37
353.15 K, x1 = 0.1122	12.1	–	–
353.15 K, x1 = 0.2034	8.9	–	–
353.15 K, x1 = 0.9357	–	–	16.3
